We go through 32 compounds from US20230123334A1, “AMINO LIPID COMPOUND, PREPARATION METHOD THEREFOR, AND APPLICATION THEREOF” (SHENZHEN SHENXIN BIOTECHNOLOGY CO., LTD., priority 2020, published 2023).

Assay [1] has as its system HEK293 cells. The experiment in a line: Preliminary screening as mRNA vectors, EGFP mRNA transfection of HEK293 cells. The format is cell-based. As to conditions: HEK293 cells, 96-well plates, EGFP mRNA 50 ng per well; percentage of GFP fluorescent cells relative to total number of cells (Hoechst). The method in brief:
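Screening format: EGFP mRNA transfection (50 ng/well) into HEK293 in 10% FBS-supplemented DMEM. Percent green fluorescent cells, normalised to Hoechst nuclear count, gave the value; Lipofectamine2000 was the reference transfectant.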

In assay [2] the test system is HEK293 cells. Put plainly: Preliminary screening as DNA vectors, GFP transfection of HEK293 cells. The format is cell-based. As to conditions: HEK293 cells; lipid/DOPE liposome with 75 ng plasmid DNA (psin-EGFP-IRES-Puro); number of cells expressing GFP divided by total number of nuclei (Hoechst). In outline: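 First, amino lipid and DOPE were vortexed in sodium acetate buffer (pH 5.6) to form liposomes. Next, these were held with 75 ng EGFP plasmid at room temperature for 30 min. Finally, HEK293 cells were added, cultured at 37° C., Hoechst-stained, and GFP+/total nuclei scored by imaging.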

Regarding `CCCCCCCCCCCCCCCCCCSc1nc(NCCN2CCCCC2)nc(SCCCCCCCCCC)n1` [Compound S10S18D4], the “Absolute mRNA transfection efficiency in HEK293 cells” value (“Absolute mRNA transfection efficiency” for short) in assay [1] stood at 6.2%. In addition, the “Absolute DNA transfection efficiency in HEK293 cells” value (“Absolute DNA transfection efficiency” for short) in assay [2] came to 6.7%.
Consider `CCCCCCCCCCCCCCCCCCSc1nc(NCCN2CCN(C)CC2)nc(SCCCCCCCCCC)n1` [Compound S10S18D5], for which the “Absolute mRNA transfection efficiency” value in assay [1] is given as 3.5%. For the same compound, in assay [2], the “Absolute DNA transfection efficiency” value is recorded as 3.7%.
For `CCCCCCCCCCCCCCCCCCSc1nc(NCCCN(C)C)nc(SCCCCCCCCCC)n1` [Compound S10S18D6], in that order: 19.9% and 22.4%.
Regarding `CCCCCCCCCCCCCCCCCCSc1nc(NCCN(CC)CC)nc(SCCCCCCCCCC)n1` [Compound S10S18D7], the “Absolute mRNA transfection efficiency” value in assay [1] amounted to 0.3%. In assay [2], the “Absolute DNA transfection efficiency” value came out at 9.2%.
For `CCCCCCCCCCCCCCCCCCSc1nc(NCCCN2CCOCC2)nc(SCCCCCCCCCC)n1` [Compound S10S18D8], in that order: 8.0% and 13.7%.
In the same order, the values of `CCCCCCCCCCCCCCCCCCSc1nc(NCCCN2CCN(C)CC2)nc(SCCCCCCCCCC)n1` [Compound S10S18D9] are 2.4% and 6.5%.
For `CCCCCCCCCCCCCCCCCCSc1nc(NCC2CCN(C)CC2)nc(SCCCCCCCCCC)n1` [Compound S10S18D10], in that order: 54.6% and 43.1%.
As for `CCCCCCCCCCCSc1nc(NCCN(C)C)nc(SCCCCCCCCCCC)n1` [Compound S11S11D1], the “Absolute mRNA transfection efficiency” value in assay [1] is 12.9%. Further, in assay [2], the “Absolute DNA transfection efficiency” value was found to be 1.3%.
For `CCCCCCCCCCCSc1nc(NCCN2CCOCC2)nc(SCCCCCCCCCCC)n1` [Compound S11S11D2], in that order: 0.0% and 0.2%.
In the same order, the values of `CCCCCCCCCCCSc1nc(NCCN2CCCC2)nc(SCCCCCCCCCCC)n1` [Compound S11S11D3] are 3.6% and 6.5%.
For `CCCCCCCCCCCSc1nc(NCCN2CCCCC2)nc(SCCCCCCCCCCC)n1` [Compound S11S11D4], in that order: 0.4% and 4.0%.
Regarding `CCCCCCCCCCCSc1nc(NCCN2CCN(C)CC2)nc(SCCCCCCCCCCC)n1` [Compound S11S11D5], the “Absolute mRNA transfection efficiency” value in assay [1] is listed as 28.7%. Further, the “Absolute DNA transfection efficiency” value in assay [2] amounted to 3.4%.
In the same order, the values of `CCCCCCCCCCCSc1nc(NCCCN(C)C)nc(SCCCCCCCCCCC)n1` [Compound S11S11D6] are 25.4% and 10.9%.
In the same order, the values of `CCCCCCCCCCCSc1nc(NCCN(CC)CC)nc(SCCCCCCCCCCC)n1` [Compound S11S11D7] are 0.0% and 0.0%.
In the same order, the values of `CCCCCCCCCCCSc1nc(NCCCN2CCOCC2)nc(SCCCCCCCCCCC)n1` [Compound S11S11D8] are 1.4% and 3.6%.
Turning to `CCCCCCCCCCCSc1nc(NCCCN2CCN(C)CC2)nc(SCCCCCCCCCCC)n1` [Compound S11S11D9], the “Absolute mRNA transfection efficiency” value in assay [1] was 8.0%. In addition, the “Absolute DNA transfection efficiency” value in assay [2] stood at 4.3%.
For `CCCCCCCCCCCSc1nc(NCC2CCN(C)CC2)nc(SCCCCCCCCCCC)n1` [Compound S11S11D10], in that order: 13.7% and 12.2%.
As for `CCCCCCCCCCCCSc1nc(NCCN(C)C)nc(SCCCCCCCCCCC)n1` [Compound S11S12D1], in assay [1], the “Absolute mRNA transfection efficiency” value is listed as 4.7%. The “Absolute DNA transfection efficiency” value in assay [2] is 2.3%.
As for `CCCCCCCCCCCCSc1nc(NCCN2CCOCC2)nc(SCCCCCCCCCCC)n1` [Compound S11S12D2], the “Absolute mRNA transfection efficiency” value in assay [1] amounted to 0.0%. For the same compound, the “Absolute DNA transfection efficiency” value in assay [2] amounted to 0.1%.
In the same order, the values of `CCCCCCCCCCCCSc1nc(NCCN2CCCC2)nc(SCCCCCCCCCCC)n1` [Compound S11S12D3] are 3.2% and 5.4%.
As for `CCCCCCCCCCCCSc1nc(NCCN2CCCCC2)nc(SCCCCCCCCCCC)n1` [Compound S11S12D4], the “Absolute mRNA transfection efficiency” value in assay [1] stood at 0.4%. In assay [2], the “Absolute DNA transfection efficiency” value is given as 5.6%.
For `CCCCCCCCCCCCSc1nc(NCCN2CCN(C)CC2)nc(SCCCCCCCCCCC)n1` [Compound S11S12D5], in that order: 9.2% and 2.8%.
In the same order, the values of `CCCCCCCCCCCCSc1nc(NCCCN(C)C)nc(SCCCCCCCCCCC)n1` [Compound S11S12D6] are 21.5% and 5.2%.
For `CCCCCCCCCCCCSc1nc(NCCN(CC)CC)nc(SCCCCCCCCCCC)n1` [Compound S11S12D7], in that order: 0.4% and 3.1%.
With `CCCCCCCCCCCCSc1nc(NCCCN2CCN(C)CC2)nc(SCCCCCCCCCCC)n1` [Compound S11S12D9], the “Absolute mRNA transfection efficiency” value in assay [1] came out at 4.2%. In addition, in assay [2], the “Absolute DNA transfection efficiency” value came to 2.4%.
In the same order, the values of `CCCCCCCCCCCCSc1nc(NCC2CCN(C)CC2)nc(SCCCCCCCCCCC)n1` [Compound S11S12D10] are 10.5% and 4.8%.
For `CCCCCCCCCCCCCCSc1nc(NCCN(C)C)nc(SCCCCCCCCCCC)n1` [Compound S11S14D1], in that order: 1.9% and 2.0%.
Consider `CCCCCCCCCCCCCCSc1nc(NCCN2CCOCC2)nc(SCCCCCCCCCCC)n1` [Compound S11S14D2], for which the “Absolute mRNA transfection efficiency” value in assay [1] was 0.0%. In addition, the “Absolute DNA transfection efficiency” value in assay [2] is 0.7%.
For `CCCCCCCCCCCCCCSc1nc(NCCN2CCCC2)nc(SCCCCCCCCCCC)n1` [Compound S11S14D3], the “Absolute mRNA transfection efficiency” value in assay [1] is 17.9%. For the same compound, in assay [2], the “Absolute DNA transfection efficiency” value came to 6.7%.
For `CCCCCCCCCCCCCCSc1nc(NCCN2CCCCC2)nc(SCCCCCCCCCCC)n1` [Compound S11S14D4], in that order: 0.2% and 3.7%.
For `CCCCCCCCCCCCCCSc1nc(NCCN2CCN(C)CC2)nc(SCCCCCCCCCCC)n1` [Compound S11S14D5], in that order: 9.1% and 5.1%.
For `CCCCCCCCCCCCCCSc1nc(NCCCN(C)C)nc(SCCCCCCCCCCC)n1` [Compound S11S14D6], in that order: 30.0% and 6.6%.
